Laboratory results from patent US9676806B2, “Metal-based thiophene photodynamic compounds and their use” (priority 2012, dated 2017).

Tested on: pUC19 plasmid DNA
Experiment: PDC-mediated pUC19 photocleavage, gel electrophoretic analysis
[1] = Air, +hv, 420-nm irradiation 1 hr, FIG. 15
[2] = Air, +hv, visible irradiation 1 hr, 21 W/m^2, FIG. 16
[3] = Ar, +hv, 420-nm irradiation 1 hr, FIG. 15
[4] = Ar, +hv, visible irradiation 1 hr, 21 W/m^2, FIG. 16

Description: FIG. 16: Gel electrophoretic analysis (1% agarose gel precast with 0.75 μg mL^−1 ethidium bromide, 1×TAE, 8 V cm^−1, 30 min.) of PDC-mediated pUC19 photocleavage in air-saturated and deoxygenated solution: visible irradiation of pUC19 (20 μM NP in 10 mM Tris·100 mM NaCl, pH 7.4) for 1 hr. with cool white fluorescent tubes, 21 W/m^2. Lanes 1 (−PDC, −hv), 2 (500 μM [Ru(bpy)3]^2+, −hv), and 5 (2 μM 10a, −hv) are controls. Lanes 3 (500 μM [Ru(bpy)3]^2+, +hv) and 6 (2 μM 10a, +hv) contain samples that were irradiated in air; lanes 4 and 7 are the corresponding samples irradiated in argon.
DNA photocleavage experiments were performed according to a general plasmid DNA assay with 20 μL total sample volumes in 0.5 or 1.5 mL microfuge tubes containing transformed pUC19 plasmid (200 ng, >95% Form I) in 10 mM MOPS buffer and 100 mM NaCl, pH 7.4. DNA (1-5 μL) was delivered to the assay tubes as a solution in 10 mM Tris-Cl (pH 8.5) and diluted with MOPS (pH 7.5, final concentration 10 mM) and NaCl (final concentration 100 mM). […] Complexes were dissolved initially in acetonitrile (2 μM stock solutions), and all subsequent dilutions were made with ddH2O where final assay tubes contained <1% acetonitrile. For concentration-based assays, samples (no pre-incubation period) were irradiated in air for 30 min with 420 nm light inside a photoreactor (Luzchem LZC-4X). Where irradiation of deoxygenated samples was required, argon was bubbled through the solutions for 15 min prior to irradiation under a positive pressure of argon. All samples were quenched by the addition of gel loading buffer (4 μL), loaded onto 1% agarose gels containing ethidium bromide (0.75 μg mL^−1), and electrophoresed for 30 min at 8-12 V cm^−1 in 1×TAE (40 mM Trisacetate, 1 mM EDTA, pH 8.2). The bands were visualized with UV-transillumination (UVP transilluminator) and quantified using the Gel Doc-It Imaging system (UVP) or GNU Image Manipulation Program (GIMP).

Compound: [Ru+2].c1ccc(-c2ccccn2)nc1.c1ccc(-c2ccccn2)nc1.c1ccc(-c2ccccn2)nc1 [[Ru(bpy)^3]^2+]
- Form I [1]: 33%
- Form II [1]: 67%
- Form I [2]: 37%
- Form II [2]: 63%
- Form II (Air, dark, 420-nm experiment FIG. 15): 29%
- Form I (Air, dark, 420-nm experiment FIG. 15, 300 μM [Ru(bpy)3]2+, 2 μM 10a, 4 μM 10b, 8 μM 14a): 71%
- Form II (Air, dark, visible experiment FIG. 16): 28%
- Form I (Air, dark, visible experiment FIG. 16, 500 μM [Ru(bpy)3]2+, 2 μM 10a): 72%
- Form I [3]: 71%
- Form II [3]: 29%
- Form I [4]: 57%
- Form II [4]: 43%
